Literature values in US20080247991A1, “Solution Additives For the Attenuation of Protein Aggregation” (priority 2004, published 2008).
Marks after values point to notes of the source that are not given here.

Target: T1, RNase A (Bos taurus, UniProt P61823)
T1 sequence (P61823 27-150): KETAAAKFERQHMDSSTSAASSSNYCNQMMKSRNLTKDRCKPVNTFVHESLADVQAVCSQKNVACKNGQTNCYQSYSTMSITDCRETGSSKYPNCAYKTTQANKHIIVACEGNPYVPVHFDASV
Conditions: interpolated to mbulk 0.91 m; cited from earlier work

In the case of `OCC(O)CO` [Glycerol], the “Experimental ΓXP” value is given as −1.7 ± 0.8^b.
